Test system: E. coli strain W3110
Test: Synergy assays: Biolog chemical sensitivity panels with Group IB metal, coefficient of drug interaction (CDI) from relative growth
Format: cell-based
Conditions: for CDI (coefficient of drug interaction), copper mixed with biocide: Copper (mM) section
[1] = Gold 5 μM, biocide concentration 1 of 4, E. coli
[2] = Gold 5 μM, biocide concentration 2 of 4, E. coli
[3] = Gold 5 μM, biocide concentration 3 of 4, E. coli
[4] = Gold 25 μM, biocide concentration 1 of 4, E. coli
[5] = Gold 25 μM, biocide concentration 3 of 4, E. coli
[6] = Gold 25 μM, biocide concentration 4 of 4, E. coli
[7] = Silver 0.5 μM, 1st of four biocide concentrations, E. coli
[8] = Silver 0.5 μM, 2nd of four biocide concentrations, E. coli
[9] = Silver 0.5 μM, 3rd of four biocide concentrations, E. coli
[10] = Silver 0.5 μM, 4th of four biocide concentrations, E. coli
[11] = Silver 1.0 μM, 1st of four biocide concentrations, E. coli
[12] = Silver 1.0 μM, 2nd of four biocide concentrations, E. coli
[13] = Silver 1.0 μM, 3rd of four biocide concentrations, E. coli
[14] = Silver 1.0 μM, 4th of four biocide concentrations, E. coli
[15] = Silver 5.0 μM, 1st of four biocide concentrations, E. coli
[16] = Silver 5.0 μM, 2nd of four biocide concentrations, E. coli
[17] = Silver 5.0 μM, 3rd of four biocide concentrations, E. coli
[18] = Silver 5.0 μM, 4th of four biocide concentrations, E. coli
[19] = 1st of 3 copper concentrations (value not shown), 1st of four biocide concentrations
[20] = 1st of 3 copper concentrations (value not shown), 3rd of four biocide concentrations
[21] = 1st of 3 copper concentrations (value not shown), 4th of four biocide concentrations
[22] = 2nd of 3 copper concentrations (value not shown), 1st of four biocide concentrations
[23] = 2nd of 3 copper concentrations (value not shown), 2nd of four biocide concentrations
[24] = 2nd of 3 copper concentrations (value not shown), 3rd of four biocide concentrations
[25] = 2nd of 3 copper concentrations (value not shown), 4th of four biocide concentrations
[26] = 3rd of 3 copper concentrations (value not shown), 1st of four biocide concentrations
[27] = 3rd of 3 copper concentrations (value not shown), 2nd of four biocide concentrations
[28] = 3rd of 3 copper concentrations (value not shown), 3rd of four biocide concentrations
[29] = 3rd of 3 copper concentrations (value not shown), 4th of four biocide concentrations
[30] = Gold section of Table 5, first of three gold concentrations (μM, value not given), biocide concentration 2 of 4
[31] = Gold section of Table 5, first of three gold concentrations (μM, value not given), biocide concentration 3 of 4
[32] = Gold section of Table 5, first of three gold concentrations (μM, value not given), biocide concentration 4 of 4
[33] = Gold section of Table 5, second of three gold concentrations (μM, value not given), biocide concentration 1 of 4
[34] = Gold section of Table 5, second of three gold concentrations (μM, value not given), biocide concentration 2 of 4
[35] = Gold section of Table 5, second of three gold concentrations (μM, value not given), biocide concentration 3 of 4
[36] = Gold section of Table 5, second of three gold concentrations (μM, value not given), biocide concentration 4 of 4
[37] = Gold section of Table 5, third of three gold concentrations (μM, value not given), biocide concentration 1 of 4
[38] = Gold section of Table 5, third of three gold concentrations (μM, value not given), biocide concentration 2 of 4
[39] = Gold section of Table 5, third of three gold concentrations (μM, value not given), biocide concentration 3 of 4
[40] = Gold section of Table 5, third of three gold concentrations (μM, value not given), biocide concentration 4 of 4
[41] = 1st of 3 copper concentrations (value not shown), 2nd of four biocide concentrations

## O=C(O)CN(CCOCCOCCN(CC(=O)O)CC(=O)O)CC(=O)O [EGTA]
Copper 0.1 mM, biocide concentration 1 of 4
  CDI: 1.05
Copper 0.1 mM, biocide concentration 2 of 4
  CDI: 1.25
Copper 0.1 mM, biocide concentration 3 of 4
  CDI: 1.28
Copper 0.1 mM, biocide concentration 4 of 4
  CDI: 1.06
Copper 0.5 mM, biocide concentration 1 of 4
  CDI: 0.87
Copper 0.5 mM, biocide concentration 2 of 4
  CDI: 1.02
Copper 0.5 mM, biocide concentration 3 of 4
  CDI: 1.06
Copper 0.5 mM, biocide concentration 4 of 4
  CDI: 1.04
Copper 1.0 mM, biocide concentration 1 of 4
  CDI: 0.94
Copper 1.0 mM, biocide concentration 2 of 4
  CDI: 1.30
Copper 1.0 mM, biocide concentration 3 of 4
  CDI: 1.59
Copper 1.0 mM, biocide concentration 4 of 4
  CDI: 1.44
[1]
  CDI (coefficient of drug interaction): 1.05
[2]
  CDI (coefficient of drug interaction): 0.88
[3]
  CDI (coefficient of drug interaction): 0.94
Gold 5 μM, biocide concentration 4 of 4, E. coli
  CDI (coefficient of drug interaction): 0.92
[4]
  CDI (coefficient of drug interaction): 1.07
Gold 25 μM, biocide concentration 2 of 4, E. coli
  CDI (coefficient of drug interaction): 1.00
[5]
  CDI (coefficient of drug interaction): 0.95
[6]
  CDI (coefficient of drug interaction): 0.97
[7]
  CDI (coefficient of drug interaction), silver + biocide: 0.74
[8]
  CDI (coefficient of drug interaction), silver + biocide: 0.86
[9]
  CDI (coefficient of drug interaction), silver + biocide: 0.82
[10]
  CDI (coefficient of drug interaction), silver + biocide: 0.92
[11]
  CDI (coefficient of drug interaction), silver + biocide: 1.02
[12]
  CDI (coefficient of drug interaction), silver + biocide: 1.07
[13]
  CDI (coefficient of drug interaction), silver + biocide: 1.01
[14]
  CDI (coefficient of drug interaction), silver + biocide: 1.02
[15]
  CDI (coefficient of drug interaction), silver + biocide: 1.13
[16]
  CDI (coefficient of drug interaction), silver + biocide: 0.98
[17]
  CDI (coefficient of drug interaction), silver + biocide: 0.72
[18]
  CDI (coefficient of drug interaction), silver + biocide: 0.4
[…], biocide concentration 1 of 4, E. coli
  CDI (coefficient of drug interaction): 1.02
[…], biocide concentration 2 of 4, E. coli
  CDI (coefficient of drug interaction): 1.13
[…], biocide concentration 3 of 4, E. coli
  CDI (coefficient of drug interaction): 1.04
[…], biocide concentration 4 of 4, E. coli
  CDI (coefficient of drug interaction): 1.11

## CN[C@H]1C[C@@H](N)[C@H](O)[C@@H](O[C@@H]2O[C@H](CO)[C@H](O)[C@@H]3OC4(O[C@H]23)O[C@H]([C@@H](N)CO)[C@H](O)[C@H](O)[C@H]4O)[C@@H]1O (some centres unmarked) [hygromycin B]
[19]
  CDI (coefficient of drug interaction), copper mixed with biocide: 1.19
[20]
  CDI (coefficient of drug interaction), copper mixed with biocide: 0.89
[21]
  CDI (coefficient of drug interaction), copper mixed with biocide: 0.61
[22]
  CDI (coefficient of drug interaction), copper mixed with biocide: 0.80
[23]
  CDI (coefficient of drug interaction), copper mixed with biocide: 0.81
[24]
  CDI (coefficient of drug interaction), copper mixed with biocide: 1.02
[25]
  CDI (coefficient of drug interaction), copper mixed with biocide: Tox
[26]
  CDI (coefficient of drug interaction), copper mixed with biocide: 0.91
[27]
  CDI (coefficient of drug interaction), copper mixed with biocide: 0.79
[28]
  CDI (coefficient of drug interaction), copper mixed with biocide: 0.77
[29]
  CDI (coefficient of drug interaction), copper mixed with biocide: 0.94
[30]
  CDI (coefficient of drug interaction): 0.82
[31]
  CDI (coefficient of drug interaction): Tox
[32]
  CDI (coefficient of drug interaction): Tox
[33]
  CDI (coefficient of drug interaction): 0.96
[34]
  CDI (coefficient of drug interaction): 1.13
[35]
  CDI (coefficient of drug interaction): Tox
[36]
  CDI (coefficient of drug interaction): Tox
[37]
  CDI (coefficient of drug interaction): 0.97
[38]
  CDI (coefficient of drug interaction): 1.27
[39]
  CDI (coefficient of drug interaction): Tox
[40]
  CDI (coefficient of drug interaction): Tox
Silver 0.5 μM, biocide concentration 1 of 4
  CDI: 1.26
Silver 0.5 μM, biocide concentration 2 of 4
  CDI: 2.06
Silver 0.5 μM, biocide concentration 3 of 4
  CDI: Tox
Silver 0.5 μM, biocide concentration 4 of 4
  CDI: Tox
Silver 1.0 μM, biocide concentration 1 of 4
  CDI: 0.63
Silver 1.0 μM, biocide concentration 2 of 4
  CDI: 1.47
Silver 1.0 μM, biocide concentration 3 of 4
  CDI: Tox
Silver 1.0 μM, biocide concentration 4 of 4
  CDI: Tox
Silver 5.0 μM, biocide concentration 1 of 4
  CDI: 0.03
Silver 5.0 μM, biocide concentration 2 of 4
  CDI: 0.37
Silver 5.0 μM, biocide concentration 3 of 4
  CDI: Tox
Silver 5.0 μM, biocide concentration 4 of 4
  CDI: Tox

## CCCCCCCC[N+](C)(CCCCCCCC)CCCCCCCC.[Br-] [Methyltrioctyl NH4+ Br−]
[19]
  CDI (coefficient of drug interaction), copper mixed with biocide: 1.05
[41]
  CDI (coefficient of drug interaction), copper mixed with biocide: 1.22
[20]
  CDI (coefficient of drug interaction), copper mixed with biocide: 1.39
[21]
  CDI (coefficient of drug interaction), copper mixed with biocide: Tox
[22]
  CDI (coefficient of drug interaction), copper mixed with biocide: 1.08
[23]
  CDI (coefficient of drug interaction), copper mixed with biocide: 1.14
[24]
  CDI (coefficient of drug interaction), copper mixed with biocide: 1.05
[25]
  CDI (coefficient of drug interaction), copper mixed with biocide: Tox
[26]
  CDI (coefficient of drug interaction), copper mixed with biocide: 0.87
[27]
  CDI (coefficient of drug interaction), copper mixed with biocide: 0.80
[28]
  CDI (coefficient of drug interaction), copper mixed with biocide: 0.44
[29]
  CDI (coefficient of drug interaction), copper mixed with biocide: Tox
Gold section of Table 5, first of three gold concentrations (μM, value not given), biocide concentration 1 of 4
  CDI (coefficient of drug interaction): 1.06
[30]
  CDI (coefficient of drug interaction): 1.05
[31]
  CDI (coefficient of drug interaction): 1.00
[32]
  CDI (coefficient of drug interaction): Tox
[33]
  CDI (coefficient of drug interaction): 1.14
[34]
  CDI (coefficient of drug interaction): 0.98
[35]
  CDI (coefficient of drug interaction): 0.37
[36]
  CDI (coefficient of drug interaction): Tox
[37]
  CDI (coefficient of drug interaction): 0.96
[38]
  CDI (coefficient of drug interaction): 1.01
[39]
  CDI (coefficient of drug interaction): 0.91
[40]
  CDI (coefficient of drug interaction): Tox
[7]
  CDI (coefficient of drug interaction), silver + biocide: 1.01
[8]
  CDI (coefficient of drug interaction), silver + biocide: 0.90
[9]
  CDI (coefficient of drug interaction), silver + biocide: Tox
[10]
  CDI (coefficient of drug interaction), silver + biocide: Tox
[11]
  CDI (coefficient of drug interaction), silver + biocide: 1.04
[12]
  CDI (coefficient of drug interaction), silver + biocide: 1.09
[13]
  CDI (coefficient of drug interaction), silver + biocide: Tox
[14]
  CDI (coefficient of drug interaction), silver + biocide: Tox
[15]
  CDI (coefficient of drug interaction), silver + biocide: 1.66
[16]
  CDI (coefficient of drug interaction), silver + biocide: 1.73
[17]
  CDI (coefficient of drug interaction), silver + biocide: Tox
[18]
  CDI (coefficient of drug interaction), silver + biocide: Tox

## acriflavine
[19]
  CDI (coefficient of drug interaction), copper mixed with biocide: 1.00
[41]
  CDI (coefficient of drug interaction), copper mixed with biocide: 1.03
[20]
  CDI (coefficient of drug interaction), copper mixed with biocide: 0.95
[22]
  CDI (coefficient of drug interaction), copper mixed with biocide: 0.88
[23]
  CDI (coefficient of drug interaction), copper mixed with biocide: 0.91
[24]
  CDI (coefficient of drug interaction), copper mixed with biocide: 0.95
[26]
  CDI (coefficient of drug interaction), copper mixed with biocide: 0.89
[27]
  CDI (coefficient of drug interaction), copper mixed with biocide: 0.82
[28]
  CDI (coefficient of drug interaction), copper mixed with biocide: 0.81
[29]
  CDI (coefficient of drug interaction), copper mixed with biocide: 0.78
[1]
  CDI (coefficient of drug interaction): 0.92
[2]
  CDI (coefficient of drug interaction): 0.94
[3]
  CDI (coefficient of drug interaction): 0.94
[4]
  CDI (coefficient of drug interaction): 0.96
[5]
  CDI (coefficient of drug interaction): 0.96
[6]
  CDI (coefficient of drug interaction): 0.87
Gold 50 μM, biocide concentration 1 of 4, E. coli
  CDI (coefficient of drug interaction): 0.86
Gold 50 μM, biocide concentration 2 of 4, E. coli
  CDI (coefficient of drug interaction): 1.00
Gold 50 μM, biocide concentration 3 of 4, E. coli
  CDI (coefficient of drug interaction): 0.96
Gold 50 μM, biocide concentration 4 of 4, E. coli
  CDI (coefficient of drug interaction): 0.84
[7]
  CDI (coefficient of drug interaction), silver + biocide: 0.99
[8]
  CDI (coefficient of drug interaction), silver + biocide: 1.03
[9]
  CDI (coefficient of drug interaction), silver + biocide: 0.86
[10]
  CDI (coefficient of drug interaction), silver + biocide: 0.73
[11]
  CDI (coefficient of drug interaction), silver + biocide: 0.97
[12]
  CDI (coefficient of drug interaction), silver + biocide: 0.95
[13]
  CDI (coefficient of drug interaction), silver + biocide: 0.87
[14]
  CDI (coefficient of drug interaction), silver + biocide: 0.59
[15]
  CDI (coefficient of drug interaction), silver + biocide: 0.96
[17]
  CDI (coefficient of drug interaction), silver + biocide: 0.54
[18]
  CDI (coefficient of drug interaction), silver + biocide: 0.24

Source: patent US11382328B2, “Rapid drug discovery methods for pathogen inactivation” (priority 2019, dated 2022)
